{"source": "the NIST ThermoML archive (doi:10.1021/je0301242)", "assay": "excess molar enthalpy (molar enthalpy of mixing); xn = mol fraction of the nth substance listed", "conditions": "323.15 K, Liquid, Flow calorimetry", "note": "Numbers after ± are expanded uncertainties."}
{"smiles": "COC", "note": "[dimethyl ether] + CCC", "values": [{"measurement": "excess molar enthalpy", "setting": "3060 kPa, x2 = 0.0397", "result": "0.022 ± 0.000478", "unit": "kcal/mol"}, {"measurement": "excess molar enthalpy", "setting": "3060 kPa, x2 = 0.0803", "result": "0.0428 ± 0.000717", "unit": "kcal/mol"}, {"measurement": "excess molar enthalpy", "setting": "3060 kPa, x2 = 0.1218", "result": "0.0629 ± 0.000956", "unit": "kcal/mol"}, {"measurement": "excess molar enthalpy", "setting": "3060 kPa, x2 = 0.1643", "result": "0.0813 ± 0.000956", "unit": "kcal/mol"}, {"measurement": "excess molar enthalpy", "setting": "3060 kPa, x2 = 0.2076", "result": "0.0978 ± 0.0012", "unit": "kcal/mol"}, {"measurement": "excess molar enthalpy", "setting": "3060 kPa, x2 = 0.252", "result": "0.112 ± 0.00143", "unit": "kcal/mol"}, {"measurement": "excess molar enthalpy", "setting": "3060 kPa, x2 = 0.2974", "result": "0.124 ± 0.00143", "unit": "kcal/mol"}, {"measurement": "excess molar enthalpy", "setting": "3060 kPa, x2 = 0.3439", "result": "0.135 ± 0.00167", "unit": "kcal/mol"}, {"measurement": "excess molar enthalpy", "setting": "3060 kPa, x2 = 0.3914", "result": "0.143 ± 0.00167", "unit": "kcal/mol"}, {"measurement": "excess molar enthalpy", "setting": "3060 kPa, x2 = 0.4401", "result": "0.147 ± 0.00167", "unit": "kcal/mol"}, {"measurement": "excess molar enthalpy", "setting": "3060 kPa, x2 = 0.49", "result": "0.15 ± 0.00167", "unit": "kcal/mol"}, {"measurement": "excess molar enthalpy", "setting": "3060 kPa, x2 = 0.5411", "result": "0.149 ± 0.00167", "unit": "kcal/mol"}, {"measurement": "excess molar enthalpy", "setting": "3060 kPa, x2 = 0.5935", "result": "0.145 ± 0.00167", "unit": "kcal/mol"}, {"measurement": "excess molar enthalpy", "setting": "3060 kPa, x2 = 0.6472", "result": "0.137 ± 0.00167", "unit": "kcal/mol"}, {"measurement": "excess molar enthalpy", "setting": "3060 kPa, x2 = 0.7023", "result": "0.126 ± 0.00143", "unit": "kcal/mol"}, {"measurement": "excess molar enthalpy", "setting": "3060 kPa, x2 = 0.7587", "result": "0.109 ± 0.00143", "unit": "kcal/mol"}, {"measurement": "excess molar enthalpy", "setting": "3060 kPa, x2 = 0.8167", "result": "0.088 ± 0.0012", "unit": "kcal/mol"}, {"measurement": "excess molar enthalpy", "setting": "3060 kPa, x2 = 0.8762", "result": "0.0609 ± 0.000956", "unit": "kcal/mol"}, {"measurement": "excess molar enthalpy", "setting": "3060 kPa, x2 = 0.9373", "result": "0.0299 ± 0.000478", "unit": "kcal/mol"}]}
{"smiles": "C=CC", "note": "[propene] + COC", "values": [{"measurement": "excess molar enthalpy", "setting": "3000 kPa, x1 = 0.0427", "result": "0.00574 ± 0.000239", "unit": "kcal/mol"}, {"measurement": "excess molar enthalpy", "setting": "3000 kPa, x1 = 0.0861", "result": "0.0112 ± 0.000478", "unit": "kcal/mol"}, {"measurement": "excess molar enthalpy", "setting": "3000 kPa, x1 = 0.1301", "result": "0.0155 ± 0.000478", "unit": "kcal/mol"}, {"measurement": "excess molar enthalpy", "setting": "3000 kPa, x1 = 0.1748", "result": "0.0201 ± 0.000478", "unit": "kcal/mol"}, {"measurement": "excess molar enthalpy", "setting": "3000 kPa, x1 = 0.2203", "result": "0.0241 ± 0.000478", "unit": "kcal/mol"}, {"measurement": "excess molar enthalpy", "setting": "3000 kPa, x1 = 0.2664", "result": "0.028 ± 0.000478", "unit": "kcal/mol"}, {"measurement": "excess molar enthalpy", "setting": "3000 kPa, x1 = 0.3133", "result": "0.0306 ± 0.000478", "unit": "kcal/mol"}, {"measurement": "excess molar enthalpy", "setting": "3000 kPa, x1 = 0.361", "result": "0.0332 ± 0.000478", "unit": "kcal/mol"}, {"measurement": "excess molar enthalpy", "setting": "3000 kPa, x1 = 0.4095", "result": "0.0354 ± 0.000717", "unit": "kcal/mol"}, {"measurement": "excess molar enthalpy", "setting": "3000 kPa, x1 = 0.4587", "result": "0.0368 ± 0.000717", "unit": "kcal/mol"}, {"measurement": "excess molar enthalpy", "setting": "3000 kPa, x1 = 0.5088", "result": "0.0373 ± 0.000717", "unit": "kcal/mol"}, {"measurement": "excess molar enthalpy", "setting": "3000 kPa, x1 = 0.5597", "result": "0.037 ± 0.000717", "unit": "kcal/mol"}, {"measurement": "excess molar enthalpy", "setting": "3000 kPa, x1 = 0.6115", "result": "0.0363 ± 0.000717", "unit": "kcal/mol"}, {"measurement": "excess molar enthalpy", "setting": "3000 kPa, x1 = 0.6641", "result": "0.0347 ± 0.000717", "unit": "kcal/mol"}, {"measurement": "excess molar enthalpy", "setting": "3000 kPa, x1 = 0.7177", "result": "0.0318 ± 0.000478", "unit": "kcal/mol"}, {"measurement": "excess molar enthalpy", "setting": "3000 kPa, x1 = 0.7722", "result": "0.0277 ± 0.000478", "unit": "kcal/mol"}, {"measurement": "excess molar enthalpy", "setting": "3000 kPa, x1 = 0.8277", "result": "0.0222 ± 0.000478", "unit": "kcal/mol"}, {"measurement": "excess molar enthalpy", "setting": "3000 kPa, x1 = 0.8841", "result": "0.016 ± 0.000478", "unit": "kcal/mol"}, {"measurement": "excess molar enthalpy", "setting": "3000 kPa, x1 = 0.9415", "result": "0.00789 ± 0.000239", "unit": "kcal/mol"}]}
